Measurements as given in patent EP4796557A1, “POLYPEPTIDE, BIOACTIVE CONJUGATE, AND PREPARATION METHOD THEREFOR AND USE THEREOF” (priority 2023, dated 2025).
Numbered stars: 1 amine (or outer) side, 2 acyl side, 3 side chain; on linkers, the order of the positions; unused ones are H or OH. Square brackets hold non-standard residues; d marks the D form. Peptide text beside a SMILES is read from it. * marks the point of attachment. Exatecan = CC[C@@]1(O)C(=O)OCc2c1cc1n(c2=O)Cc2c-1nc1cc(F)c(C)c3c1c2[C@@H](N*)CC3; Hexanoyl(6-maleimido) = O=C1C=CC(=O)N1CCCCCC(=O)*; PABC = O=C(OCc1ccc(N[*:1])cc1)[*:2]; Cit = NC(=O)NCCC[C@H](N)C(=O)O

Assays:
[1] = background statement; cited from earlier work
MMP2 = target: T1, MMP2 (Homo sapiens, UniProt P08253); assay: Enzymolysis assay of the linker-payload by MMP2 (LC-MS); type: biochemical; settings: linker-payload 100 µmol, activated MMP2 1 µg/mL, 37°C, 24 h
T1 sequence (P08253 110-660): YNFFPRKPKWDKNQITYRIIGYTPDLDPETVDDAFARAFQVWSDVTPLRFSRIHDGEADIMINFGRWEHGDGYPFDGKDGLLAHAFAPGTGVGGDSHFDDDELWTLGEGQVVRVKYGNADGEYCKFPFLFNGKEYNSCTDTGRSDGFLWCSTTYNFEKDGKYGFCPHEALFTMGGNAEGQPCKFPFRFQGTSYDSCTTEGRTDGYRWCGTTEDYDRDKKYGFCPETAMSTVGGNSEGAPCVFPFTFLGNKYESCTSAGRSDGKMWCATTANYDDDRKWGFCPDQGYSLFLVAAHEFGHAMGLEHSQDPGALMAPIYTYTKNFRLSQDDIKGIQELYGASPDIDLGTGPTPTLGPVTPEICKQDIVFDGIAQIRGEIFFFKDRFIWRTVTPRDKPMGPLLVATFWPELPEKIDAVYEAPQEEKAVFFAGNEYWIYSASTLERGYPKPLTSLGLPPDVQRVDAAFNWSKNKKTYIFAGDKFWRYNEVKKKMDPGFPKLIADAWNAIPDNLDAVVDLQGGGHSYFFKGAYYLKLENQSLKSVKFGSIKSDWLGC
Protocol: MMP2 having a final concentration of 200 µg/mL was mixed with 4 mM APMA at a ratio of 1:1 and placed in a 37°C water bath and incubated for 24 h to activate the MMP2 enzyme solution. Subsequently, the linker-payload having a final concentration of 100 µmol was incubated with the activated MMP2 solution having a final concentration of 1 µg/mL in a 37°C water bath for 24 h. After the reaction was complete, LC-MS analysis was performed.

MMP9 = MMP9 (Homo sapiens, UniProt P14780); assay: Enzymolysis assay of the linker-payload by MMP9 (LC-MS); type: biochemical; settings: linker-payload 100 µmol, activated MMP9 0.2 µg/mL, 37°C, 24 h
Protocol: MMP9 having a final concentration of 200 µg/mL was mixed with 4 mM APMA at a ratio of 1:1 and placed in a 37°C water bath and incubated for 24 h to activate the MMP9 enzyme solution. Subsequently, the linker-payload having a final concentration of 100 µmol was incubated with the activated MMP9 solution having a final concentration of 0.2 µg/mL in a 37°C water bath for 24 h. After the reaction was complete, LC-MS analysis was performed.

Chain of MMP9 (P14780 107-707 limits assumed, species assumed): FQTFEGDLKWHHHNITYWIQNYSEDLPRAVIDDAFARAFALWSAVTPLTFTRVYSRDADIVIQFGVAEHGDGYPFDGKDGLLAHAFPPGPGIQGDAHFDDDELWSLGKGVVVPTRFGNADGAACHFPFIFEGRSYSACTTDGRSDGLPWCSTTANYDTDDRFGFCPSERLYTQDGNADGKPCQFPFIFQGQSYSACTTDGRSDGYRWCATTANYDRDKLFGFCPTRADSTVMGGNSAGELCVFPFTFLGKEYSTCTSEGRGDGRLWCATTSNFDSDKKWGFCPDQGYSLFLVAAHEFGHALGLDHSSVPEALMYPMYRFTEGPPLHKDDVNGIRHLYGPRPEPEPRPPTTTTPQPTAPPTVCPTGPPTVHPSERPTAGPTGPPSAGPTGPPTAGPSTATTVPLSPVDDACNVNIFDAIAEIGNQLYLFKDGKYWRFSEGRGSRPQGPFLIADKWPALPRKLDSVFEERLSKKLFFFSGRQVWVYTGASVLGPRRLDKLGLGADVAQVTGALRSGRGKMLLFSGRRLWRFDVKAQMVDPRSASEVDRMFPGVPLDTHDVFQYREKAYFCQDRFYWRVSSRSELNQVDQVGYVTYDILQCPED

Molecule | half-life in plasma [1] | MMP2 enzymolysis efficiency (%) (MMP2) | MMP9 enzymolysis efficiency (%) (MMP9)
Trodelvy | less than 24 hours |  | 
CC[C@@]1(O)C(=O)OCc2c1cc1n(c2=O)Cc2c-1nc1cc(F)c(C)c3c1c2[C@@H](NC(=O)OCc1ccc(NC(=O)[C@H](CCCNC(N)=O)NC(=O)[C@@H](NC(=O)[C@H](CC(C)C)NC(=O)[C@H](CC(N)=O)NC(=O)[C@H](CCCNC(N)=O)NC(=O)[C@@H]2CCCN2C(=O)CCCCCN2C(=O)C=CC2=O)C(C)C)cc1)CC3 [Compound L064-P005, MC-PCitNLVCit-PAB-DX8951] ({Hexanoyl(6-maleimido)}-P[Cit]NLV[Cit][PABC]-Exatecan) |  | 42.89 | 52.70
CC[C@@]1(O)C(=O)OCc2c1cc1n(c2=O)Cc2c-1nc1cc(F)c(C)c3c1c2[C@@H](NC(=O)OCc1ccc(NC(=O)[C@H](CCCNC(N)=O)NC(=O)[C@@H](NC(=O)[C@H](CC(C)C)NC(=O)[C@H](CO)NC(=O)[C@H](C)NC(=O)[C@@H]2CCCN2C(=O)CCCCCN2C(=O)C=CC2=O)C(C)C)cc1)CC3 [Compound L065-P005, MC-PASLVCit-PAB-DX8951] ({Hexanoyl(6-maleimido)}-PASLV[Cit][PABC]-Exatecan) |  | 32.73 | 27.13
